IC50 data for seven compounds are collected here from patent US7462613B2, “Pyridazinone derivatives as pharmaceuticals and pharmaceutical compositions containing them” (SANOFI-AVENTIS Deutschland GmbH, priority 2002, dated 2008).

The target in the assay is CDK2/Cyclin E kinase (Homo sapiens, UniProt P24941). The assay can be described thus: CDK2/Cyclin E Flashplate Assay: 96-Well Format. It is filed as biochemical. The following applies: streptavidin-coated flashplate; biotinylated-Rb peptide substrate 10 μM; 33P-ATP/ATP 1 μM; CDK2/Cyclin E 20 nM; 30 minutes at 30° C.; 1% DMSO. On the procedure: Functional Measurements for Determination of IC50-Values
CDK2/Cyclin E Flashplate Assay: 96-Well Format
A 96-well streptavidin-coated flashplate was used to assay potency of compounds according formula (I) against CDK2/Cyclin E kinase. To carry out the assay, biotinylated-Rb peptide substrate (Biotin-[…]-OH) was solubilized at 1 mM in kinase buffer (Hepes 50 mM, NaCl 1 mM, MgCl2 5 mM pH 7.5) as a stock solution conserved at −20° C. in aliquots of 110 μl. The day of the experiment, an aliquot of this solution was thawed and diluted to 14.3 μM in kinase buffer, containing 1 mM dithiothreitol (DTT) added in the buffer at the same time.
70 μl of this solution was added in each well of the flashplate in order to achieve a final concentration of 10 μM (100 μl reactionnal volume). Serial dilutions of inhibitors were prepared in DMSO from 10 mM stock solutions in order to achieve 1000 μM, 333.3 μM, 111.1 μM, 37.03 μM, 12.35 μM, 4.11 μM and 1.37 μM and all were rediluted in kinase buffer+DTT in order to achieve 100 μM, 33.3 μM, 11.1 μM, 3.7 μM, 1.24 μM, 0.41 μM and 0.14 μM in DMSO 10% buffer (vol/vol). 10 μl of each, of these solutions (or 10 μl of buffer+DTT for controls) were transferred to the testplate wells in order to achieve 10 μM, 3.33 μM, 1.11 μM, 0.37 μM, 0.12 μM, 0.04. μM and 0.01 μM as final concentrations, 1% DMSO (vol/vol). In each well, 10 μl of a solution of a mix of ^33PyATP/ATP were added in order to achieve 1 μM final concentration and a total of 1 μCi. The kinase reaction was initiated by addition of 10 μl of a solution at 200 nM of CDK2/Cyclin E in kinase buffer+DTT (or buffer+DTT for blanks) in order to achieve 20 nM final concentration. After addition of each reagent, the test-plate was shakened. The plates were incubated 30 minutes at 30° C. with a shaking at 650 rpm. At the end of the incubation, the plates were washed 3 times with 300 μl of PBS (without calcium and magnesium) per well. The incorporation of ^33P to the peptide was measured by scintillation counting.
For the compound `CCNc1nccc(-c2cc(C(=O)NCc3ccc(Cl)cc3)c(=O)[nH]n2)n1` [Example 190, 6-(2-Ethylamino-pyrimidin-4-yl)-3-oxo-2,3-dihydro-pyridazine-4-carboxylic acid 4-chloro-benzylamide], the IC50 – broadly, the point on the concentration scale where inhibition reaches its midpoint – was found to be 18 nM.
`CNc1cc(-c2cc(C(=O)NCc3ccc(Cl)cc3)c(=O)[nH]n2)ccn1` [Example 206, 6-(2-Methylamino-pyridin-4-yl)-3-oxo-2,3-dihydro-pyridazine-4-carboxylicacid 4-chloro-benzylamide]: half-maximal inhibition (IC50) required 157 nM.
`COC(=O)c1ccc(CNC(=O)c2cc(-c3ccncc3)n[nH]c2=O)cc1` [Example 217, 4-{[(3-Oxo-6-pyridin-4-yl-2,3-dihydro-pyridazine-4-carbonyl)-amino]-methyl}-benzoic acid methylester; compound withtrifluoro-acetic acid]: the IC50 is 24 nM.
The same measure for `CCCCNc1nccc(-c2cc(C(=O)NCCCN3CCN(C)CC3)c(=O)[nH]n2)n1` [Example 218, 6-(2-Butylamino-pyrimidin-4-yl)-3-oxo-2,3-dihydro-pyridazine-4-carboxylic acid [3-(4-methyl-piperazin-1-yl)-propyl]-amide; compoundwith trifluoro-acetic acid]: 107 nM; for `CCCCNc1nccc(-c2cc(C(=O)NCc3cccnc3)c(=O)[nH]n2)n1` [Example 219, 6-(2-Butylamino-pyrimidin-4-yl)-3-oxo-2,3-dihydro-pyridazine-4-carboxylic acid (pyridin-3-ylmethyl)-amide]: 15 nM; for `CCCCNc1nccc(-c2cc(C(=O)NCCCc3cccnc3)c(=O)[nH]n2)n1` [Example 220, 6-(2-Butylamino-pyrimidin-4-yl)-3-oxo-2,3-dihydro-pyridazine-4-carboxylic acid (3-pyridin-3-yl-propyl)-amide]: 12 nM.
With `COc1cc(-c2cc(C(=O)NCc3ccc(C(=O)O)cc3)c(=O)[nH]n2)ccc1O` [Example 225, 4-({[6-(4-Hydroxy-3-methoxy-phenyl)-3-oxo-2,3-dihydro-pyridazine-4-carbonyl]-amino}-methyl)-benzoic acid] the figure was 149 nM.
